We go through 2 molecules from patent publication US20260091123A1, “COMBINATION OF ANTI-B7-H3 ANTIBODY-DRUG CONJUGATE AND ATR INHIBITOR OR ATM INHIBITOR” (DAIICHI SANKYO COMPANY, LIMITED, priority 2023, published 2026).

Molecules are shown by their SMILES.

The subject of assay [1] is human prostate carcinoma epithelial cell line, 22Rv1. The experiment in a line: In vivo antitumor activity, combination with ATM inhibitor, 22Rv1 xenograft (Test Example 5). The arrangement: species or system mice. To be noted: day 29. The method, then: All animal experiments were performed in accordance with the in-house guidelines of the Institutional Animal Care and Use Committee of Daiichi Sankyo Co., Ltd. The human prostate carcinoma epithelial cell line, 22Rv1 was purchased from American Type Culture Collection (ATCC) and cultured in RPMI 1640 Medium (ATCC modification) (Thermo Fisher Scientific) supplemented with 10% heat-inactivated fetal bovine serum (FBS, cytiva) at 37° C. in a humidified 5% CO2 atmosphere. On the day of cancer cell inoculation, 22Rv1 cells were trypsinized, washed with D-PBS, and then resuspended in D-PBS at a concentration of 5×10^7 cells/mL. Castrated male NSG mice (NOD.Cg-Prkdc^scid Il2rg^tm1Wj1/SzJ, 6 weeks of age, The Jackson Laboratory Japan, Inc.) were subcutaneously inoculated with 22Rv1 cells (5×10^6 cells/mouse) into the right flank. […] Vehicle control • Group 2: AZD1390 20 mg/kg • Group 3: […] A (10 mmol/L histidine buffer [pH5.9] containing 9% sucrose and 0.02% polysorbate 20) to prepare a 0.3 mg/mL dosing solution. To prepare a 2.0 mg/mL dosing solution, AZD1390 was dissolved in Soln. […] The volume of each dosing solution to be administered was calculated from the individual body weight measured on the day of dosing. […] Tumor length and tumor width were measured with a digital caliper. Tumor volume and tumor growth inhibition (TGI) were calculated by the following formulas: […] […]

The test system is the same in assay [2]. The assay is described as follows: In vivo antitumor activity, combination with ATR inhibitor, 22Rv1 xenograft (Test Example 4). The arrangement: species or system mice. The settings on record: day 24. The method, then:
All animal experiments were performed in accordance with the in-house guidelines of the Institutional Animal Care and Use Committee of Daiichi Sankyo Co., Ltd. […] Vehicle control • Group 2: AZD6738 25 mg/kg • Group 3: […] A (10 mmol/L histidine buffer [pH5.9] containing 9% sucrose and 0.02% polysorbate 20) to prepare a 0.3 mg/mL dosing solution. […] Then, propylene glycol (40% [v/v] of total volume of the dosing solution) was added to the solution. After mixing with a magnetic stirrer well, water for injection (50% [v/v] of total volume of the dosing solution) was added to the solution, and then the solution was further mixed well with a magnetic stirrer. The volume of each dosing solution to be administered was calculated based on the individual body weight measured on the day of dosing. Soln. […] Soln. […] Tumor length and tumor width were measured with a digital caliper. Tumor volume and tumor growth inhibition (TGI) were calculated by the following formulas: […] Dunnett's test was used to compare tumor volumes in monotherapy groups with those in the vehicle control and to compare tumor volumes in monotherapy groups with those in the combination group. […] The following calculation of TGI and statistical analyses were performed using data except for the excluded mouse in Group 4.

As for `CC(C)n1c(=O)n(C)c2cnc3cc(F)c(-c4ccc(OCCCN5CCCCC5)nc4)cc3c21` [AZD1390], in assay [1] (22Rv1 in castrated male NSG mice, AZD1390 20 mg/kg orally, conjugate (1) 3 mg/kg iv days 0 and 14), the “tumor growth inhibition (TGI)” value came to 14%. The “tumor growth / antitumor activity compared with the vehicle control” value in assay [1] (monotherapies, Dunnett's test) is reported as “no statistically significant difference in antitumor activity”.

Take `C[C@@H]1COCCN1c1cc(C2([S@](C)(=N)=O)CC2)nc(-c2cc[nH]c3nccc2-3)n1` [AZD6738]: the “tumor growth inhibition (TGI)” value in assay [2] (22Rv1 in castrated male NSG mice, AZD6738 25 mg/kg orally twice a day, conjugate (1) 3 mg/kg iv days 0 and 15) was 29%. The “tumor growth compared with the vehicle control” value in assay [2] (monotherapies, Dunnett's test) is given as “significantly inhibited tumor growth”.
